Test results from patent publication US9012182B2, “Method for producing purine nucleosides and nucleotides by fermentation using bacterium belonging to the genus Bacillus or Escherichia” (Ajinomoto Co., Inc., priority 2004, dated 2015).

Tests used:
Format in all cases: cell-based
[1] = tested on: E. coli strain TG1 (pYDHL1); experiment: Growth on M9 glucose minimal agar with purine base analogues, ydhL-amplified strain; details: 44 h at 37° C. Also: key: +: good growth; −: no growth.
Protocol: (§1) The pYDHL1 plasmid and the vector were used to transform the E. coli strain TG1 (Amersham Pharmacia Biotech) via standard techniques. Transformants were selected on L-broth agar plates with 100 μg/ml ampicillin. Thus, the E. coli strains TG1 (pYDHL1) and TG1 (pMW118) were obtained. Then the ability of these strains to grow in the presence of purine base analogues was determined on M9 glucose minimal agar plates containing graded concentrations of an inhibitor. The plates were spotted with 10^5 to 10^6 cells from an overnight culture grown in a minimal medium (supplemented with 100 μg/ml of ampicillin). The growth was estimated after 44 h incubation at 37° C.

B. subtilis 168(pYDHL4) = experiment: Growth on M9 glucose minimal agar with purine analogues, ydhLBa-amplified strain; details: 48 h at 34° C. Also: key: +: good growth; −: no growth.
Protocol: (§2) The pYDHL3, pYDHL4 plasmids and the pMWMX1 vector were used to transform wild-type B. subtilis strain 168 via standard techniques. Transformants were selected on L-broth agar plates with 10 μg/ml erythromycin. Thus, the strains B. subtilis 168(pMWMX1), B. subtilis 168(pYDHL3) and B. subtilis 168(pYDHL4) were obtained. Then, the ability of these strains to grow in the presence of purine base analogues was determined on M9 glucose minimal agar plates (minimal medium M9, glucose-2%, vitamin assay casamino acids (Difco)—0.1%, tryptophan—100 μg/ml) containing graded concentrations of a purine analogue. The plates were spotted with 10^5 to 10^6 cells from an overnight culture grown on the above agar plates without the analogues. The growth was estimated after 48 h incubation at 34° C.

B. subtilis 168 = experiment: Growth on M9 glucose minimal agar with purine analogues, control strain; details: 48 h at 34° C.
Protocol: as §2

[2] = tested on: E. coli strain TG1 (pMW118); experiment: Growth on M9 glucose minimal agar with purine base analogues, vector control strain; details: 44 h at 37° C. Also: key: +: good growth; −: no growth.
Protocol: as §1

B. subtilis 168(pYDHL3) = experiment: Growth on M9 glucose minimal agar with purine analogues, ydhLBs-amplified strain; details: 48 h at 34° C. Also: key: +: good growth; −: no growth.
Protocol: as §2

[3] = tested on: E. coli deoD gsk3 (pYDHL1); experiment: Growth on minimal medium with inosine or guanosine, ydhL-amplified strain; details: for Resistance conferred by ydhL gene overexpression: summary in words of Table 2, pYDHL1 versus pMW118; as to Growth on the minimal medium containing Guanosine 10 mg/l: key: +: good growth; −: no growth; as to Growth on the minimal medium containing Guanosine 15 mg/l: key: +: good growth; −: no growth; as to Growth on the minimal medium containing Inosine 1000 mg/l: key: +: good growth; −: no growth; as to Growth on the minimal medium containing Inosine 300 mg/l: key: +: good growth; −: no growth
Protocol: as §1
(§3) The pYDHL1 plasmid and the pMW118 vector were also transformed into the E. coli strain TG1 deoD gsk3. The E. coli strain TG1 deoD gsk3 was an especially constructed parental strain which is used for checking the resistance to inosine and guanosine. This strain was obtained by sequential introduction of a deoD mutation, as described in PCT application WO9903988 and gsk3 mutation described by Petersen C. (J. Biol. Chem., 274, 5348-5356, 1999) using phage P1-mediated transduction into the known strain TG1 (VKPM B-5837), which is resistant to inosine and guanosine due to its ability to degrade purine. The strain TG1 deoD gsk3 cannot degrade guanosine and inosine due to a deoD mutation (WO9903988), and it is sensitive to nucleosides due to a gsk3 mutation (Petersen C. J. Biol. Chem., 274, 5348-5356, 1999). Thus, the strains TG1 deoD gsk3 (pYDHL1) and TG1 deoD gsk3 (pMW118) were obtained. Then the ability of these strains to grow in the presence of inosine and guanosine was determined as above.

[4] = tested on: E. coli deoD gsk3 (pMW118); experiment: Growth on minimal medium with inosine or guanosine, vector control strain; also: key: +: good growth; −: no growth
Protocol: as §1, §3

For Nc1ncnc2nn[nH]c12 [AzaA, 8-azaadenine], the “Growth on the minimal medium containing AzaA, 300 μg/ml” value ([1]; AzaA 300 μg/ml) was “+”, the “Growth on the minimal medium containing AzaA, 2 mg/ml” value (B. subtilis 168(pYDHL4); AzaA 2 mg/ml) was “+” and the “Growth on the minimal medium containing AzaA, 2 mg/ml” value (B. subtilis 168; AzaA 2 mg/ml) was “−”. The “Growth on the minimal medium containing AzaA, 300 μg/ml” value ([2]; AzaA 300 μg/ml) was “−”.
Nc1nc2nn[nH]c2c(=O)[nH]1 [AzaG, 8-azaguanine] was tested, and the “Growth on the minimal medium containing AzaG, 2 μg/ml” value (“Growth … 2 μg/ml” for short) (B. subtilis 168(pYDHL4); AzaG 2 μg/ml) was “+”, the “Growth on the minimal medium containing AzaG, 10 μg/ml” value (B. subtilis 168(pYDHL4); AzaG 10 μg/ml) was “+” and the “Growth … 2 μg/ml” value (B. subtilis 168(pYDHL3); AzaG 2 μg/ml) was “+”. The “Growth … 2 μg/ml” value (B. subtilis 168; AzaG 2 μg/ml) was “−” and the “Growth on the minimal medium containing AzaG, 10 μg/ml” value (B. subtilis 168; AzaG 10 μg/ml) was “−”.
Nc1nc(N)c2[nH]cnc2n1 [DAP, 2,6-diaminopurine] was tested, and the “Growth on the minimal medium containing DAP, 400 μg/ml” value ([1]; DAP 400 μg/ml) was “+” and the “Growth on the minimal medium containing DAP, 400 μg/ml” value ([2]; DAP 400 μg/ml) was “−”.
In the case of Nc1nc2c(ncn2[C@@H]2O[C@H](CO)[C@@H](O)[C@H]2O)c(=O)[nH]1 [Guanosine], the “Growth on the minimal medium containing Guanosine 10 mg/l” value ([3]; guanosine 10 mg/l, E. coli deoD gsk3 (pYDHL1)) is reported as “+”, the “Growth on the minimal medium containing Guanosine 15 mg/l” value ([3]; guanosine 15 mg/l, E. coli deoD gsk3 (pYDHL1)) is reported as “−” and the “Resistance conferred by ydhL gene overexpression” value [3] is reported as “low-level resistance”. The “Growth on the minimal medium containing Guanosine 10 mg/l” value ([4]; guanosine 10 mg/l) was “−” and the “Growth on the minimal medium containing Guanosine 15 mg/l” value ([4]; guanosine 15 mg/l) was “−”.
With OC[C@H]1O[C@@H](n2cnc3c(O)ncnc32)[C@H](O)[C@@H]1O [Inosine] the “Growth on the minimal medium containing Inosine 300 mg/l” value ([3]; inosine 300 mg/l, E. coli deoD gsk3 (pYDHL1)) was “+”, the “Growth on the minimal medium containing Inosine 1000 mg/l” value ([3]; inosine 1000 mg/l, E. coli deoD gsk3 (pYDHL1)) was “+” and the “Resistance conferred by ydhL gene overexpression” value [3] was “high-level resistance”. For the same molecule, the “Growth on the minimal medium containing Inosine 300 mg/l” value ([4]; inosine 300 mg/l) was “−” and the “Growth on the minimal medium containing Inosine 1000 mg/l” value ([4]; inosine 1000 mg/l) was “−”.
With Sc1ncnc2nc[nH]c12 [MP, 6-mercaptopurine] the “Growth on the minimal medium containing MP, 400 μg/ml” value ([1]; MP 400 μg/ml) was “+” and the “Growth on the minimal medium containing MP, 400 μg/ml” value ([2]; MP 400 μg/ml) was “−”.
Cc1ncnc2nc[nH]c12 [MePur, 6-methylpurine] was tested, and the “Growth on the minimal medium containing MePur, 20 μg/ml” value (shortened to “Growth … 20 μg/ml”) (B. subtilis 168(pYDHL4); MePur 20 μg/ml) was “+”, the “Growth … 20 μg/ml” value (B. subtilis 168(pYDHL3); MePur 20 μg/ml) was “+” and the “Growth … 20 μg/ml” value (B. subtilis 168; MePur 20 μg/ml) was “−”.
